Experimental data as given in US9120749B2, “Quinoline derivatives and MELK inhibitors containing the same” (ONCOTHERAPY SCIENCE, INC., priority 2010, dated 2015).
Like-named read-outs stand apart in the source and are kept apart here.

Assays:
[1] = test system: T47D cells; assay: Cell-based assay: anti-proliferative activity, Cell Counting Kit-8, 72 hours (T47D); settings: Homo sapiens, T47D, 72 h
Method: (§1) To evaluate the expression status of MELK in several cell lines, western blot analysis was performed using crude cell lysate collected from those cells. Anti-MELK antibody (clone 31, BD Biosciences) was used to visualize the expression.
(§2) Active candidate inhibitors against MELK were evaluated for their target-specific cytotoxicity using T47D, A549, BT-549, and HT-1197 cells was used for negative control. 100 micro-L of cell suspension was seeded onto 96-well microtiter plate (ViewPlate-96FTC, PerkinElmer). The initial cell concentration of T47D, A549, BT-549, and HT-1197 were 3,000 cells/well, 2,000 cells/well and 2,500 cells/well, respectively. Cellular growth was determined using Cell Counting Kit-8 (DOJINDO) at 72 hours after the exposure of the candidate inhibitors. […] Accurate IC50 values were calculated as described previously.

[2] = target: MELK (Homo sapiens, UniProt Q14680); assay: Kinase assay: MELK activity, phosphorylation of FITC-labeled histone H3 peptide measured by IMAP fluorescence polarization; assay type: biochemical; settings: read-out: IC50 (μM) (kinase assay)
Method: MELK activity was determined in the presence or absence of compounds using fluorescein isothiocyanate-labeled (FITC-labeled) histone H3 peptide as a substrate. […] Test compounds were dissolved in DMSO at 12.5 mM and then serially diluted as the DMSO concentration in the assays to be 1%. […] The reaction was stopped by the addition of three fold assay volume of progressive binding solution. Following 0.5 hour incubation at room temperature, fluorescence polarization was measured by Wallac EnVision 2103 multilabel reader (PerkinElmer).

[3] = test system: HT-1197 cells; assay: Cell-based assay: anti-proliferative activity, Cell Counting Kit-8, 72 hours (HT-1197, negative control without MELK expression); settings: Homo sapiens, HT1197, 72 h, 72 hours
Method: as §1, §2

[4] = test system: A549 cells; assay: Cell-based assay: anti-proliferative activity, Cell Counting Kit-8, 72 hours (A549); settings: Homo sapiens, A549, 72 h, 72 hours
Method: as §2, with “100” for “Active candidate inhibitors against MELK were evaluated for their target-specific cytotoxicity using T47D, A549, BT-549, and HT-1197 cells was used for negative control. 100”

[5] = 50 micro-M ATP, FITC-labeled histone H3 peptide substrate, IMAP fluorescence polarization
[6] = HT1197 cells (negative control, no MELK expression)
[7] = HT1197 cells (negative control)

Chain of MELK (Q14680 whole entry, looked up): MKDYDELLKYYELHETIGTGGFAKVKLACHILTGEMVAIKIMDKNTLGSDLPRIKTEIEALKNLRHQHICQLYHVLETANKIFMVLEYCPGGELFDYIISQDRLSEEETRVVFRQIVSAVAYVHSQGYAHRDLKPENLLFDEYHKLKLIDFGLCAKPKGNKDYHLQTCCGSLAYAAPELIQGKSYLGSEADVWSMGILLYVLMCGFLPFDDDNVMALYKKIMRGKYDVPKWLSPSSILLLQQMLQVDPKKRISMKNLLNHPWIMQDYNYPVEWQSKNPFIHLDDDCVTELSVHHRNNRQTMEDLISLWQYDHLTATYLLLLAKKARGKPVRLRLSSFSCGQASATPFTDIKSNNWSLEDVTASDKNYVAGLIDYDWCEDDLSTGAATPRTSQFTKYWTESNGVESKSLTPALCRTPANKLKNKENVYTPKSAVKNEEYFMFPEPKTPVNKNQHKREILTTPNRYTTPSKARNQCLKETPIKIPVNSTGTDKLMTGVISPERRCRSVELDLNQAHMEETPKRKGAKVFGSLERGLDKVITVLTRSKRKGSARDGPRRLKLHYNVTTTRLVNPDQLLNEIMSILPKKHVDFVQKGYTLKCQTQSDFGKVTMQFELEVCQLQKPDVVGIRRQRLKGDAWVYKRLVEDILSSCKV

| Structure (SMILES) | IC50 [1] [µM] | IC50 [2, 5] [µM] | IC50 [3, 6] [µM] | IC50 [4] [µM] | IC50 [2] [µM] | IC50 [3, 7] [µM] | IC50 ([2]; MELK kinase assay, IMAP fluorescence polarization, 50 micro-M ATP) [µM] |
| --- | --- | --- | --- | --- | --- | --- | --- |
| CN1CCN(c2ccc(-c3c(C(=O)C4CC4)cnc4ccc(-c5cc(Cl)c(O)c(Cl)c5)cc34)cc2)CC1 [Example 430, cyclopropyl(6-(3,5-dichloro-4-hydroxyphenyl)-4-(4-(4-methylpiperazin-1-yl)phenyl)quinolin-3-yl)methanone] | 1.3 | 0.033 | 9.2 | 2.7 |  |  |  |
| CN(C)Cc1ccc(Nc2c(C(=O)C3CC3)cnc3ccc(-c4cc(F)c(O)c(Cl)c4)cc23)nc1 [Example 435, (6-(3-chloro-5-fluoro-4-hydroxyphenyl)-4-(5-((dimethylamino)methyl)pyridin-2-ylamino)quinolin-3-yl)(cyclopropyl)methanone] | 2.7 | 0.049 | 12 | 2.8 |  |  |  |
| O=C(c1cnc2ccc(-c3cc(Cl)c(O)c(Cl)c3)cc2c1Nc1ccc(CN2CCC(F)(F)C2)cc1)C1CC1 [Example 581, cyclopropyl(6-(3,5-dichloro-4-hydroxyphenyl)-4-(4-((3,3-difluoropyrrolidin-1-yl)methyl)phenylamino)quinolin-3-yl)methanone] | 1.4 |  |  |  | 0.63 | 5.3 |  |
| CN(C)CC1CCN(c2c(C(=O)C3CC3)cnc3ccc(-c4ccc5c(c4)CC(=O)N5)cc23)CC1 [Example 474] | 10 |  | 10 |  |  |  |  |
| COc1cc(-c2cc(F)c3ncc(C(=O)C4CC4)c(Nc4ccc(CN(C)C)cc4)c3c2)cc(Cl)c1O [Example 551, (6-(3-chloro-4-hydroxy-5-methoxyphenyl)-4-(4-((dimethylamino)methyl)phenylamino)-8-fluoroquinolin-3-yl)(cyclopropyl)methanone] | 2 |  |  |  | 1.1 | 6.9 |  |
| O=C(c1cnc2ccc(-c3cc(F)c(O)c(Cl)c3)cc2c1NC1CCC(N2CCC(F)(F)C2)CC1)C1CC1 (stereo not shown) [Example 675, (6-(3-chloro-5-fluoro-4-hydroxyphenyl)-4-(4-(3,3-difluoropyrrolidin-1-yl)cyclohexylamino)quinolin-3-yl)(cyclopropyl)methanone] | 0.8 |  | 4.4 |  | 0.83 |  |  |
| COc1cc(-c2ccc3ncc(C(=O)C4CC4)c(NC4CCC(N5CCC(F)(F)C5)CC4)c3c2)cc(Cl)c1O (stereo not shown) [Example 676, (6-(3-chloro-4-hydroxy-5-methoxyphenyl)-4-(4-(3,3-difluoropyrrolidin-1-yl)cyclohexylamino)quinolin-3-yl)(cyclopropyl)methanone] | 1 |  | 11 |  | 0.29 |  |  |
| N[C@H]1CC[C@H](Nc2c(C(=O)C3CC3)cnc3c(F)cc(-c4cc(F)c(O)c(Cl)c4)cc23)CC1 [Example 555] | 0.44 |  |  |  | 5.1 | 10 |  |
| CN(C)Cc1ccc(Nc2c(C(=O)C3CC3)cnc3c(F)cc(-c4cc(Cl)c(O)c(Cl)c4)cc23)cc1 [Example 552, cyclopropyl(6-(3,5-dichloro-4-hydroxyphenyl)-4-(4-((dimethylamino)methyl)phenylamino)-8-fluoroquinolin-3-yl)methanone] | 1.1 |  |  |  | 0.58 | 9 |  |
| CN[C@H]1CC[C@H](Nc2c(C(C)=O)cnc3ccc(-c4cc(F)c(O)c(Cl)c4)cc23)CC1 [Example 560] | 0.041 |  |  |  | 0.11 | 10 |  |
| O=C(c1cnc2ccc(-c3cc(Cl)c(O)c(Cl)c3)cc2c1NC1CCC(N2CCC(F)(F)C2)CC1)C1CC1 (stereo not shown) [Example 664, cyclopropyl(6-(3,5-dichloro-4-hydroxyphenyl)-4-(4-(3,3-difluoropyrrolidin-1-yl)cyclohexylamino)quinolin-3-yl)methanone] | 1.7 |  | 10 |  | 0.14 |  |  |
| COC(=O)c1ccc(-c2ccc3ncc(C(=O)C4CC4)c(N4CCC(CN(C)C)CC4)c3c2)cc1 [Example 481, methyl 4-(3-(cyclopropanecarbonyl)-4-(4-((dimethylamino)methyl)piperidin-1-yl)quinolin-6-yl)benzoate] | 10 |  | 10 |  | 1.4 |  |  |
| COc1cc(-c2cc(F)c3ncc(C(=O)C4CC4)c(N[C@H]4CC[C@H](N)CC4)c3c2)cc(Cl)c1O [Example 564] | 0.43 |  |  |  | 0.26 | 1.8 |  |
| CN(C)CC1CCN(c2c(C(=O)C3CC3)cnc3ccc(-c4ccc(OC(F)F)cc4)cc23)CC1 [Example 458] | 7.2 |  | 8.4 |  |  |  |  |
| COc1cc(-c2ccc3ncc(C(=O)C4CC4)c(-c4cn[nH]c4)c3c2)cc(Cl)c1O [Example 536, (6-(3-chloro-4-hydroxy-5-methoxyphenyl)-4-(1H-pyrazol-4-yl)quinolin-3-yl)(cyclopropyl)methanone] | 1.3 |  |  |  | 0.11 | 14 |  |
| CN1CCN(C(=O)CNc2c(C(=O)C3CC3)cnc3ccc(-c4ccc(O)c(Cl)c4)cc23)CC1 [Example 393, 2-(6-(3-chloro-4-hydroxyphenyl)-3-(cyclopropanecarbonyl)quinolin-4-ylamino)-1-(4-methylpiperazin-1-yl)ethanone] | 2.6 | 0.095 |  | 2.2 |  |  |  |
| CCCC(=O)c1cnc2ccc(-c3cc(Cl)c(O)c(Cl)c3)cc2c1Nc1ccc(N2CCNCC2)nc1 [Example 625, 1-(6-(3,5-dichloro-4-hydroxyphenyl)-4-(6-(piperazin-1-yl)pyridin-3-ylamino)quinolin-3-yl)butan-1-one] | 1.5 |  |  |  | 0.15 | 10 |  |
| N[C@H]1CC[C@H](Nc2c(C(=O)C3CC3)cnc3c(F)cc(-c4cc(Cl)c(O)c(Cl)c4)cc23)CC1 [Example 565] | 0.3 |  |  |  | 2.1 | 10 |  |
| COc1cc(-c2ccc3ncc(C(=O)C4CC4)c(Nc4ccc(C5CCCN5C)cn4)c3c2)cc(Cl)c1O (stereo not shown) [Example 444] | 6.8 |  | 10 | 7.6 |  |  |  |
| CN(C)Cc1ccc(Nc2c(C(=O)C3CC3)cnc3c(F)cc(-c4cc(F)c(O)c(Cl)c4)cc23)cc1 [Example 563, (6-(3-chloro-5-fluoro-4-hydroxyphenyl)-4-(4-((dimethylamino)methyl)phenylamino)-8-fluoroquinolin-3-yl)(cyclopropyl)methanone] | 1.3 |  |  |  | 1.8 | 3.3 |  |
| CC(=O)c1cnc2ccc(-c3cnc(C#N)nc3)cc2c1Nc1ccc(CN(C)C)cc1 [Example 414, 5-(3-acetyl-4-(4-((dimethylamino)methyl)phenylamino)quinolin-6-yl)pyrimidine-2-carbonitrile] | 0.24 |  | 0.8 | 1.5 |  |  |  |
| CN(C)CC1CCN(c2c(C(=O)C3CC3)cnc3ccc(-c4ccc(C(=O)O)cc4)cc23)CC1 [Example 492, 4-(3-(cyclopropanecarbonyl)-4-(4-((dimethylamino)methyl)piperidin-1-yl)quinolin-6-yl)benzoic acid] | 10 |  | 10 |  | 1.4 |  |  |
| COc1cc(-c2ccc3ncc(C(C)=O)c(Nc4ccc(CN5CCCC5)cc4)c3c2)cc(Cl)c1O [Example 419, 1-(6-(3-chloro-4-hydroxy-5-methoxyphenyl)-4-(4-(pyrrolidin-1-ylmethyl)phenylamino)quinolin-3-yl)ethanone] | 0.99 |  | 5.1 | 0.84 |  |  |  |
| CN(C)CC1CCN(c2c(C(=O)C3CC3)cnc3ccc(-c4ccc(C(F)F)cc4)cc23)CC1 [Example 465] | 8.6 | 0.91 | 5.6 |  |  |  |  |
| COc1cc(-c2ccc3ncc(C(=O)C4CC4)c(NCC(=O)N4CCN(C)CC4)c3c2)cc(Cl)c1O [Example 395, 2-(6-(3-chloro-4-hydroxy-5-methoxyphenyl)-3-(cyclopropanecarbonyl)quinolin-4-ylamino)-1-(4-methylpiperazin-1-yl)ethanone] | 10 | 1 | 10 |  |  |  |  |
| Cc1cc(O)c(Cl)cc1-c1ccc2ncc(C(=O)C3CC3)c(N3CCC(CN(C)C)CC3)c2c1 [Example 448] | 2 |  | 7.9 | 1.7 |  |  |  |
| O=C(c1cnc2ccc(-c3cc(Cl)c(O)c(Cl)c3)cc2c1Nc1ccc(CN2CCCC2)cc1)C1CC1 [Example 366, Cyclopropyl{6-(3,5-dichloro-4-hydroxyphenyl)-4-[4-(pyrrolidin-1-ylmethyl)phenylamino]quinolin-3-yl}methanone] |  |  |  |  |  |  | 0.15 |
